{"source": "patent US8865672B2", "about": "“Prevention of tissue ischemia and related methods” (The United States of America, as represented by the …, priority 2006, dated 2014)", "key": {"human platelets [1]": {"tested_on": "human platelets", "assay": "Human platelet adhesion assay", "format": "cell-based", "details": "fibrinogen or collagen, DEA/NO 10 μM", "method": "Bacteriological Petri dishes (35×10 mm, Becton Dickinson Labware) were pre-coated with collagen (3 μg/ml) or fibrinogen (15 μg/mL) overnight. Following aspiration of non-adherent matrix, dishes were blocked with 1% BSA. Fresh platelets were washed and suspended in Tyrode's buffer and allowed to adhere for 30 minutes. Plates were washed with PBS, fixed with 0.5% glutaraldehyde and stained with 0.02% toluidine blue. Adherent platelets were counted microscopically. In some experiments platelets were pre-incubated with the Rap1 geranylgeranyltransferase inhibitor GGTI-298 (10 μM) for 30 minutes prior to initiating adhesion."}, "HAVSMC [2]": {"tested_on": "HAVSMC", "assay": "Actin cytoskeleton staining (F-actin) in HAVSMC", "format": "cell-based, human", "method": "VSMC were grown on glass well slides (Lab-Tek, Nunc) under standard growth conditions. Cells were incubated at 37° C. for 1 hour in serum and additive deficient growth medium and the indicated treatment agents, after which the media was removed and the cells were fixed in 4% paraformaldehyde in PBS (pH 7.4, Fisher Scientific) for 15 minutes at room temperature. After washing with DPBS, cells were permeabilized for 5 minutes in 0.1% Triton X-100 in PBS and then blocked in M199E/2% BSA for 30 min at room temperature. Cells were stained for F-actin with 1 unit/200 μl medium/1% BSA of Oregon Green 488 phalloidin (Molecular Probes). Slides were imaged using an Olympus IX70 microscope and photographed at constant exposure and gain. In other experiments VSMC were plated on 24-well culture plates (Nunc, Denmark) in smooth muscle growth medium (50,000 cells/well) and weaned from serum and additives over 24 hours. Cell treatment was performed with the indicated agents in plain medium with 0.1% BSA for 5 minutes. Wells were processed as described above. Following staining with phalloidin cells were incubated in methanol for 30 minutes, samples aliquoted to 96-well black plates and fluorescence read at 520 nm (excitation 495 nm). Data was normalized to total protein. Results represent the mean±SD of at least three separate experiments."}, "human platelets [3]": {"tested_on": "human platelets", "assay": "Thrombin-induced human platelet aggregation", "format": "cell-based", "details": "high shear, thrombin 0.2 U/ml, DEA/NO 10 μM", "method": "Platelets were pelleted from platelet-rich plasma (PRP) by centrifugation for 10 minutes at 200 g. They were then washed with acid citrate dextrose (ACD) (85 mM citric acid, 65 mM sodium citrate, 100 mM glucose, pH 5.1) at a ratio of 1:7 at room temperature. After pelleting the platelets again and removing the supernatant, the platelets were resuspended in 5 mL of Tyrode's buffer (137 mM NaCl, 3 mM KCl, 12 mM NaHCO3, 0.3 mM NaHPO4, 2 mM CaCl2, 1 mM MgCl2, 5.5 mM glucose, 5 mM HEPES, 3.5 mg/mL BSA, pH 7.4). The final platelet number was adjusted to […] in 500 μl/cuvette of Tyrode's buffer.\nAggregation of human platelets under high shear conditions was assessed using a standard optical aggregometer (Lumi-Dual Aggregometer, Chrono-Log Corp., Havertown, Pa.) at 37° C. and 1200 rpm in a volume of 500 μl buffer with a final platelet concentration of 2×10^5 platelets/μl over a 5 minute interval. Pre-incubation with TSP1 and TSP1-based agents was for 15 minutes prior to addition of thrombin and/or the rapidly releasing nitric oxide donor DEA/NO. In some experiments platelets were pre-incubated with the Rap1 inhibitor GGTI-298 (10 μM) (Calbiochem, La Jolla, Calif.) for 30 minutes prior to initiating aggregation. In other high shear aggregation experiments murine platelets were prepared as above with the following modifications. Mouse blood was collected by retro-orbital bleeding of anesthetized mice using heparinized tubes. PRP was prepared and then diluted with 4 vol. of Tyrodes containing 5 mM EDTA to prevent activation. After collection by centrifugation, platelets were resuspended in 2× initial PRP volume and held at room temperature for less than 1 hour before use. Aggregation conditions consisted of 250 μL of washed platelets stirred at 1200 rpm in a Chronolog Optical aggregometer at 37° C. DEA/NO (10 μM) was added 30 seconds prior to activation and 8-BrcGMP added 15 min prior to activation with 0.2 U/ml human thrombin. Data was collected using Chronolog “Aggrolink” software. Platelet aggregation under static conditions was assessed using a spectrophotometer (Beckman DU 640, Beckman Coulter, Fullerton, Calif.) and determined as a change in absorbance at 400 nm with continuous observation over a five minute interval. The cuvette was inverted once every 60 seconds. Pre-incubation with TSP1 and TSP1-based agents was for 15 minutes prior to addition of thrombin and/or DEA/NO to minimize the formation of thrombin-serpinthrombospondin complexes (Chang & Detwiler, Arch Biochem Biophys. 299:100-104, 1992), which interfere with thrombin-platelet interactions.\nFresh human platelets were suspended in Tyrode's buffer and under low shear conditions thrombin-stimulated aggregation measured as described. Platelets were then treated with peptide C6d (1 μM)±NO (10 μM DEA/NO) and thrombin and aggregation measure."}, "[4]": {"tested_on": "murine ASMC (WT, CD36 null, CD47 null)", "assay": "Intracellular cGMP in murine ASMC", "format": "cell-based, mouse", "method": "Murine ASMC were obtained from aortic segments harvested sterilely from C57B1/6 CD47 null or CD36 null mice as described (Ray et al., Methods Cell Sci 23:185-188, 2001) and cultured in SM-GM (Cambrex)+20% FCS. In the case of CD36 null cells, culture flasks were pre-coated with 1% gelatin prior to cell plating. Wild type C57B1/6 ASMC cultures were prepared as previously described (Isenberg et al., Matrix Biol 24:110-123, 2005). Cell culture purity was determined by immunohistochemistry staining for α-smooth muscle actin. Cells were used within passage 1 to 4 to minimize overgrowth of other cell types.\nHUVEC (10^4 cells/well) grown overnight in 96-well culture plates containing full growth medium with 2% FCS and weaned in growth medium without additives and 1% FCS over 24 hrs before treatment with NO donors and other agents in SM-GM without additives+0.1% BSA. Intracellular cGMP levels were determined according to the manufacturer's instructions using an enzyme immunoassay kit (Amersham Biosciences). In other experiments ASMC from wild type and CD36 or CD47 null mice were plated onto 96-well culture plates and incubated overnight in full growth medium. They were then weaned off serum as described to SM-GM+0.1% BSA and treated with NO donor and other agents as indicated. Intracellular cyclic nucleotides were determined via immunoassay."}, "HUVEC": {"tested_on": "HUVEC", "assay": "NO-stimulated HUVEC adhesion on type I collagen", "format": "cell-based, human", "details": "DEA/NO 10 μM, 1 h", "method": "Cell adhesion was carried out in 96-well culture plates. After pre-coating wells with type I collagen (3 μg/ml in DPBS) harvested cells were plated at a density of 1×10^4 cells/well in medium plus 0.1% BSA and treatment agents and incubated in 5% CO2 for 1 h. Wells were washed with PBS and cells fixed with 1% glutaraldehyde for 10 min., washed and stained with 1% crystal violet for 20 min. Excess stain was rinsed away, adherent cells treated with 10% acetic acid, and plates read at 570 nm."}, "human platelets [5]": {"tested_on": "human platelets", "assay": "cGMP in human platelets", "format": "cell-based", "details": "washed human platelets in Tyrode's buffer", "method": "Fresh human platelets at 2×10^5 platelets/μl in Tyrode's buffer or PRP were pre-incubated with the indicated agents for 15 minutes and then challenged with DEA/NO for the indicated time interval at room temperature and total cGMP determined via immunoassay (Amersham, GE Healthcare, Buckinghamshire, UK). Murine WT and TSP1-null platelets were treated with DEA/NO and cGMP flux measured."}, "HAVSMC [6]": {"tested_on": "HAVSMC", "assay": "3D collagen matrix contraction assay, human aortic VSMC", "format": "cell-based", "details": "HAVSMC, 10% FCS or 100 nM S1P", "method": "Type I collagen gel (3 mg/ml) with 10×M199 (Gibco, Grand Island, N.Y.) at a 10:1 ratio of collagen to medium was prepared, pH balanced with NaOH and seeded with either HAVSMC or VSMC harvested from aortic segments from C57B16 WT or TSP1 null mice (50,000 cells in 75 μl of gel/well) and aliquoted to 96-well plates (Nunc, Denmark). Plates were incubated for 12 h 37° C. and 5% CO2 allowing for gelation and cell spreading, gently released from the well walls and incubated in serum and additive deficient growth medium with 0.1% BSA in the presence of the indicated treatment agents for 10 h. Contraction was determined by measuring the diameter in perpendicular planes (x, y) of each disk, an average obtained and surface area calculated as (d/2)^2π. Experiments were performed in triplicate. Results represent the mean±SD of at least three separate experiments.\nHuman aortic VSMC were plated onto 12-well culture plates (Nunc) at a density of 5×10^4 cells/well in SM-GM+2% FCS and cultured until approximately 90% confluent. A translation-blocking antisense morpholino oligonucleotide complementary to human and murine CD47 ([…]; SEQ ID NO: 21) and a five-base mismatch control (CGTgACAGcCAcGACCgACTGCgCA; SEQ ID NO: 22) were obtained from GeneTools (Philomath, Oreg.). Cultured cells were treated as per the manufacturer's recommendation with morpholinos (10 μM) and utilized within 48 hours of treatment."}}, "note": "Square brackets hold non-standard residues; d marks the D form. Ends that are not written are not given here.", "data": [{"molecule": "O=c1onc2cnc3ccccc3n12", "note": "[ODQ, Oxadiazole-[4,3-a]quinoxalin-1-one, reference compound]", "values": [{"measurement": "decrease in platelet adhesion in response to exogenous NO", "setting": "human platelets [1]", "value": "prevented the decrease in platelet adhesion"}, {"measurement": "NO-induced actin disassembly", "setting": "HAVSMC [2]; DEA/NO 10 μM", "value": "inhibition of actin disassembly by NO"}]}, {"molecule": "GDGV(D-I)TRIR (GDGV[dI]TRIR) [p907, reference compound]", "values": [{"measurement": "NO delay of thrombin-induced platelet aggregation", "setting": "human platelets [3]", "value": "accelerated platelet aggregation in the presence of NO"}, {"measurement": "NO-stimulated cGMP", "setting": "[4]; CD36 null MASMC", "value": "partially inhibited"}, {"measurement": "NO-stimulated cGMP", "setting": "[4]; CD47 null MASMC", "value": "did not significantly inhibit"}, {"measurement": "NO-stimulated cGMP", "setting": "[4]; WT MASMC", "value": "slightly inhibited"}, {"measurement": "NO-stimulated cGMP", "setting": "[4]; WT MASMC, listed as 907", "value": "inhibited NO-stimulated cGMP responses in WT"}, {"measurement": "NO-stimulated endothelial cell adhesion on type I collagen", "setting": "HUVEC", "value": "inhibited NO-stimulated endothelial cell adhesion"}, {"measurement": "NO stimulated cGMP in platelets", "setting": "human platelets [5]", "value": "partially inhibited"}]}, {"molecule": "NCCN(CCN)/[N+]([O-])=N/O", "note": "[DETA/NO, diethyltriamine NONOate]", "values": [{"measurement": "collagen gel contraction", "setting": "HAVSMC [6]", "value": "inhibited gel contraction by both agonists"}]}, {"molecule": "CCCCCCCCCCCCC/C=C/[C@@H](O)[C@@H](N)COP(=O)(O)O", "note": "[S1P, sphingosine-1-phosphate, reference compound]", "values": [{"measurement": "collagen gel contraction", "setting": "HAVSMC [6]", "value": "significant contraction"}, {"measurement": "F-actin levels", "setting": "HAVSMC [2]; agent alone (TSP1 2.2 nM, S1P 100 nM)", "value": "increased F-actin"}]}]}
